For 111 compounds, melting point results are on record in a melting point compilation (Tetko et al.).

Broadly, the melting point is the temperature of the solid-liquid transition. The compound `CCCCCCCCCCCCCCCCCCCCCCCCCCCCCCO` returned a melting point of 88 °C.

Regarding `Nc1ncnc2c1cnn2CCO`, the melting point turned out to be 218 °C.

As for `COc1ccc(CNc2ccc([N+](=O)[O-])c3nonc23)cc1`, the melting point fell in the range of 176 to 180 °C.

Consider `O=Cc1ccc([N+](=O)[O-])cc1[N+](=O)[O-]`, for which the melting point worked out at 72 °C.

Take `N#Cc1ccc(F)cn1`: the melting point turned out to be 43 °C.

Take `COC(=O)C1=C(N)Oc2cc(C)n(CCc3ccccc3)c(=O)c2C1c1cccc([N+](=O)[O-])c1` (stereo unspecified): the melting point was 216 °C.

Consider `CC1=NN(c2ccccc2)C(=O)C1=CC1C(=O)N(c2ccccc2)N=C1C` (stereo unspecified), for which the melting point lay within 180 to 181 °C.

As for `COc1ccc(CC(=O)C(=O)O)cc1`, the melting point is 194 °C.

`COc1ccc(-c2cc(=O)c3c(O)cc(O)cc3o2)cc1O` came in with a melting point of 254 °C.

For `COc1ccc2[nH]cc(CCN(C(C)C)C(C)C)c2c1`, the melting point came to 181 °C.

`COC(=O)c1cnccn1` showed a melting point of 58 °C.

`Nc1ccc2c3c(cccc13)C(=O)NC2=O` displayed a melting point of 360 °C.

Compound `COc1cc(C(=O)c2ccc(Cl)cc2)cc(OC)c1OCCN1CCOCC1` registered a melting point of 91.5 °C.

In turn, `Cc1ccc(-c2ccccc2)cc1N` yielded a melting point of 58 to 60 °C.

For the compound `O=[N+]([O-])c1cc(N=C=S)ccc1Cl`, the melting point came out at 66 °C.

As to `CC1(C)CC(C(N)=O)C(C)(C)N1` (stereo unspecified), the melting point was 129 to 131 °C.

Consider `CC[C@@]1(O)CC[C@H]2[C@@H]3CCC4CC(OC(C)=O)CC[C@]4(C)[C@H]3CC[C@@]21C` (stereo partly specified), for which the melting point was in the range of 164 to 165 °C.

Compound `Clc1cnc(Cl)c(Cl)c1` displayed a melting point of 49 °C.

Compound `COc1cncc(Br)c1` showed a melting point of 31 °C.

Compound `Cc1cc(CCl)c(C)cc1CCl` gave a melting point of 132 °C.

`CN(C)c1ccc(N=O)cc1` had a melting point of 92.5 °C.

Consider `FC(F)(F)c1ccc2nsnc2c1`, for which the melting point was in the range of 36 to 37 °C.

Compound `CCc1ncc[nH]1` came in with a melting point of 83 to 87 °C.

Compound `CC1(c2ccccc2)CC(C(=NNC(O)=S)c2cc3ccccc3o2)C1` (stereo unspecified) registered a melting point of 191 to 192 °C.

As to `COc1ccccc1NC(=O)c1cnc(C(C)(C)C)c(Cl)n1`, the melting point lay in the range of 118 to 119 °C.

In the case of `Cc1ccc(-c2cc[nH]n2)cc1`, the melting point lay within 82 to 86 °C.

Turning to `CCCNC(C)C(=O)Nc1ccccc1C` (stereo unspecified), the melting point was found to be 37.5 °C.

`c1ccc(N=NNc2ccccc2)cc1`: the melting point is 98 °C.

`O=S(=O)(c1ccccc1)N(F)S(=O)(=O)c1ccccc1` had a melting point of 110 to 115 °C.

`Nc1ncc(S(=O)(=O)c2ccc([N+](=O)[O-])cc2)s1` displayed a melting point of 222 to 226 °C.

Consider `NC(=O)/C(=N\Nc1ccc(F)cc1)c1nc2ccccc2s1`, for which the melting point was found to be 158 °C.

Consider `S=C(Nc1ccccc1)C(=S)Nc1ccccc1`, for which the melting point fell in the range of 134 to 135 °C.

Regarding `OC12CCCC1c1ccccc12` (stereo unspecified), the melting point amounted to 66 °C.

Regarding `O=Cc1cccc(-c2cncnc2)c1`, the melting point was in the range of 148 to 149 °C.

In the case of `O=Cc1ccc2nccn2c1`, the melting point amounted to 152 °C.

Take `CCOC(=O)c1nn(-c2ccc(C)cc2)c(C)c1C(=O)c1noc(-c2ccc(C)cc2)c1S(=O)(=O)c1ccccc1`: the melting point stood at 180 °C.

Compound `COc1ccccc1OCCNCC(O)COc1cccc2[nH]c3ccccc3c12` (stereo unspecified) registered a melting point of 114 °C.

The compound `O=C1OC2(c3ccccc31)c1cc([N+](=O)[O-])c(O)c(Br)c1Oc1c2cc([N+](=O)[O-])c(O)c1Br` gave a melting point of 275 °C.

On to `Nc1c(CN2CCCCCC2)c(=O)oc2ccccc12`, for which the melting point was found to be 153 °C.

Regarding `NC(Cc1ccc(N(CCCl)CCCl)cc1)C(=O)O` (stereo unspecified), the melting point came out at 182 °C.

Take `COc1ccc(F)c(O)c1F`: the melting point is 75 °C.

Consider `CC1N=C(S)N2C(C)N=C(S)N12` (stereo unspecified), for which the melting point lay within 182 to 184 °C.

Regarding `NC(=O)c1sc(Nc2ccc(Cl)cc2)nc1N`, the melting point lay within 220 to 222 °C.

`CNC(=O)Oc1cc(C)cc(C(C)C)c1` returned a melting point of 87 °C.

`ClC1(c2ccccc2)Cc2ccccc21` (stereo unspecified) came in with a melting point of 60 °C.

`O=C(O)Cn1ccnc1` gave a melting point of 258 to 260 °C.

Turning to `CNC(=O)ON=C(C)C(C)SC` (stereo unspecified), the melting point came out at 37 °C.

Consider `O=C1OC(=Cc2ccccc2)c2ccccc21`, for which the melting point stood at 100 °C.

Regarding `Cc1ccc(S(=O)(=O)OC2CCCCC2)cc1`, the melting point came to 46 °C.

`O=C(O)c1cccc(-c2ccsc2)c1` showed a melting point of 177 to 179 °C.

`COc1ccc2c(OC)c3ccoc3nc2c1OC`: the melting point turned out to be 177 °C.

`N#C/C(=N\Nc1ccc(Br)cc1)c1nc2ccccc2s1` gave a melting point of 280 °C.

The compound `O=S(=O)(CCCl)c1ccc(F)cc1` registered a melting point of 69 °C.

In the case of `C=CC(C)(C)O`, the melting point is -28 °C.

With `CCC/C=C/CCCCCC`, the melting point is -63.7 °C.

In turn, `FC(F)C(F)(F)F` came in with a melting point of -103 °C.

`Cc1nc([N+](=O)[O-])cn1CCC(N)=NO` came in with a melting point of 207 °C.

`C1CCCCNCCC1` showed a melting point of -19 °C.

For the compound `COc1ccc(C=C2N=C(c3ccccc3)OC2=O)cc1`, the melting point was in the range of 151 to 152 °C.

Consider `CC1(C)OC(=O)C(=Cc2ccccc2F)C(=O)O1`, for which the melting point was found to be 142 °C.

Take `CC(C)OC(=O)CCCCC(=O)OC(C)C`: the melting point was -1.1 °C.

Turning to `CC1=NN(c2ccc([N+](=O)[O-])cc2)C(=O)C1[N+](=O)[O-]` (stereo unspecified), the melting point came out at 119 °C.

`O=Cc1ccc2[nH]cnc2c1`: the melting point was 159 to 161 °C.

The compound `O=C(Oc1cccc([N+](=O)[O-])c1)c1ccccc1` showed a melting point of 95 °C.

`Cc1c(-c2ccccc2)[nH]c2ccccc12` displayed a melting point of 91.5 °C.

Regarding `NCc1ccc(N2CCOCC2)cc1`, the melting point stood at 50 °C.

For the compound `CC(C(=O)O)C(O)(c1ccccc1)c1ccccc1` (stereo unspecified), the melting point was 182 °C.

`CN(c1ccc2cc3ccc4c(c3nc2c1)COCN4)S(C)(=O)=O` came in with a melting point of 300 °C.

On to `Nc1cnccc1C(F)(F)F`, for which the melting point fell in the range of 55 to 56 °C.

`CCCCCCCCC(NC(=O)OCC1c2ccccc2-c2ccccc21)C(=O)O` (stereo unspecified) displayed a melting point of 143 °C.

`COc1cc2cncc(Cc3ccccc3)c2cc1O`: the melting point came to 193 °C.

The compound `CC[C@H](C)[C@@H](N)C(=O)O` yielded a melting point of 285 °C.

The compound `COC(=O)C1C2CC3c4[nH]c5ccccc5c4CCN3CC2CC(OC(=O)c2cc(OC)c(OC)c(OC)c2)C1OC` (stereo unspecified) came in with a melting point of 230 °C.

As to `c1cncc(C2CCCCN2)c1` (stereo unspecified), the melting point turned out to be 9 °C.

Compound `Cc1cc(C)c(N)c(C)c1N` yielded a melting point of 90 °C.

In the case of `O=C1OC(=O)C2=C1CCCC2`, the melting point was found to be 74 °C.

For `CCOC(=O)c1sc(N)nc1C(F)(F)F`, the melting point came out at 186 °C.

`N#CC1=C(N)n2nc(C(F)(F)F)nc2NC1c1ccco1` (stereo unspecified) gave a melting point of 260 °C.

For `CC(=O)Oc1c(-c2ccccc2)[nH]c2ccccc12`, the melting point came out at 107 °C.

In the case of `COc1cc(C=O)cc(OC)c1OC`, the melting point amounted to 75 °C.

In turn, `O=C(c1ccccc1)c1ccccc1Cl` gave a melting point of 46 °C.

Consider `O=c1cc(-c2ccccc2)cc(-c2ccccc2)o1`, for which the melting point is 137 °C.

For the compound `O=C(CCl)c1cccc(C(=O)CCl)c1`, the melting point amounted to 90 °C.

In the case of `CCOC(=O)c1[nH]c(C)cc1C`, the melting point lay within 125 to 126 °C.

In the case of `OCc1ccc(SC(F)(F)F)cc1`, the melting point was 52 °C.

In turn, `Cc1cc2c(nn1)CCc1nonc1-2` showed a melting point of 143 to 145 °C.

Regarding `COC(=O)/C(=C/c1ccccc1)Cc1ccccc1`, the melting point lay within 27 to 28 °C.

`CCOc1ccc(NC(=O)C(F)(F)C(F)(F)C(F)(F)C(F)(F)C(F)(F)C(F)(F)C(F)(F)C(F)(F)F)cc1` displayed a melting point of 135 °C.

Take `N#CC1=C(N)OC2=C(CCCC2)C1c1ccccc1` (stereo unspecified): the melting point turned out to be 261 °C.

Turning to `Brc1cccc(Oc2ccc(Br)c(Br)c2)c1`, the melting point was below 20 °C.

In the case of `O=S(=O)(n1ccnc1)n1ccnc1`, the melting point was 135 to 137 °C.

In turn, `CCNC(=O)Nc1ncc([N+](=O)[O-])s1` showed a melting point of 228 °C.

Turning to `ON=C1CCCc2nonc21`, the melting point was 166 to 168 °C.

For the compound `COC(=O)C=Cc1ccccc1`, the melting point turned out to be 36 °C.

Take `O=C(O)c1ccccc1S`: the melting point was 164 to 169 °C.

Compound `Cc1ccc(C(N)=O)cc1[N+](=O)[O-]` displayed a melting point of 166 °C.

Regarding `OCc1cc(Cl)nc(Cl)c1`, the melting point lay within 128 to 130 °C.

Regarding `NC(=O)C1CCN(C(=O)OCc2ccccc2)CC1`, the melting point was in the range of 130 to 132 °C.

`CC(C)(C)OC(=O)NC1(C(=O)O)CCCC1` displayed a melting point of 133 °C.

Regarding `COCC(CCC(=O)OC)N1CC=CC1` (stereo unspecified), the melting point fell in the range of 144 to 146 °C.

The compound `CCC=C1CCC2C3CCC4CC(OC(C)=O)CCC4(C)C3CCC12C` (stereo unspecified) had a melting point of 114 °C.

For `C[Si](C)(C)N=C=N[Si](C)(C)C`, the melting point is -23 °C.

On to `CC(C)C1OC(=O)C2CCC1(C)OC2(C)C` (stereo unspecified), for which the melting point was found to be 120 °C.

As to `O=C(CNc1cccc(NCC(=O)c2ccccc2)c1)c1ccccc1`, the melting point was 164 °C.

In the case of `CCCCCCCc1ccc(C(=O)Oc2ccc(C#N)cc2)cc1`, the melting point lay in the range of 43 to 46 °C.

`Cc1cc(C)c(CC#N)c(C)c1` showed a melting point of 78.5 °C.

`O=Cc1cccc2c1OCCO2` gave a melting point of 62 to 63 °C.

Compound `O=C(NCCCc1ccccc1)c1cc([N+](=O)[O-])cc([N+](=O)[O-])c1` came in with a melting point of 123 °C.

`Cc1ccc(C(=O)O)c(N)c1` registered a melting point of 160 to 161 °C.

For `N#Cc1cc(C(F)(F)F)ccc1N1CCOCC1`, the melting point was in the range of 53 to 55 °C.

Consider `c1ccc(N=Nc2ccc(N=Nc3ccc(/N=N/c4ccc(N=Nc5ccccc5)cc4)cc3)cc2)cc1`, for which the melting point was found to be 275 °C.
